The values below come from patent US4618610A, “Triazine derivatives, and pharmaceutical compositions comprising the same” (Fujisawa Pharmaceutical Co., Ltd., priority 1983, dated 1986).

For one assay, the system named is blood pressure. Kind of assay: Test method A: antihypertensive activity, oral, in uninephrectomized DOCA/saline rats. The class given is in vivo, rat (Wister). As to conditions: orally, DOCA rats, mean arterial pressure. The procedure: Five-week old male Wister rats were uninephrectomized under anesthesia. Deoxycorticosterone […] (DOCA) (30 mg/kg), suspended in peanut oil, was injected subcutaneously twice a week and 1% saline was substituted for the drinking water. Animals with mean blood pressure 150-200 mmHg were used for experiment between 5 and 7 weeks after surgery.
The test compounds were administered orally.
Blood pressure was measured at the femoral artery by means of a pressure transducer and recorded as electrically integrated values of mean arterial pressure.
a: The test compound were administered orally in a dose of 1 mg/kg.
b: The test compound were administered orally in dose of 0.1 mg/kg.

The test system of another assay is platelet. As to the kind of experiment: Test Method B: inhibition of platelet aggregation in platelet rich plasma. Conditions: Oryctolagus cuniculus, rabbit PRP, 37° C. Format: cell-based. The procedure: Platelet rich plasma (PRP) which contains 6.5-7.5×10^8 platelet/ml was prepared from rabbit blood. To the 200 ul of PRP, 5 μl of calcium chloride (1 mM) and 50 μl of pH 7.4 Tris-acetate solution (5 mM) containing 120 mM NaCl and test compound were added successively, and then stirred for 2 min. at 37° C. To the solution, 5 μl of adenosine diphosphate (ADP) (2.5 μM) or collagen (2.5 ug/ml) was added as an aggregation inducer. Aggregation was measured by using an aggregometer (NKK HEMA TRACER 1).

The subject of a further assay is ethanol ulcer. As to the kind of experiment: Test methods C: ethanol ulcer (antiulcer activity). Format: in vivo, rat (Sprague-Dawley). Conditions: 32 mg/kg orally, 30 minutes before absolute ethanol (5 ml/kg). The procedure:
Five male Sprague-Dawley rats, aged 7 weeks and weighing about 200 g, were used per group for the study on ethanol ulcer after the fast for 24 hours.
Test compound was suspended in 0.1% methylcellulose aqueous solution, and the suspension (5 ml/kg) was orally given to each rat.
The control group was given a vehicle, i.e. 0.1% methylcellulose aqueous solution (5 ml/kg), alone in the same way.
Absolute ethanol (5 ml/kg) was orally administered 30 minutes after dosing with test compound, and one hour later, the rats were sacrificed and their stomachs were removed. The area of ulcers of each rat was measured. The mean area (mm^2) in the medicated group was compared with that in the control group.

Setting [1] is: ADP (2.5 μM) as aggregation inducer, read-out: ID50 ADP (platelet aggregation).
The mark [2] stands for this setting: collagen (2.5 ug/ml) as aggregation inducer, read-out: ID50 Collagen (platelet aggregation).

The structures appear in SMILES notation. Read-outs that look alike come from different tables or passages of the source.

For `CC1NC(=O)NN=C1c1ccc(NC(=O)C2CC2)cc1` (stereo not shown) [Example 24-(10), 6-(4-Cyclopropanecarbonylaminophenyl)-5-methyl-4,5-dihydro-1,2,4-triazin-3(2H)-one], the “Effect Max (mean ratio of maximum decrease of blood pressure)” value with blood pressure (dose b: 0.1 mg/kg) worked out at 41.1%. Also, the IC50 is 0.034 µM with platelet (setting [1]) and 0.0031 µM in the assay with platelet (setting [2]).

As for `CC(=O)Nc1ccc(C2=NNC(=S)NC2C)cc1` (stereo not shown) [Example 23-(3), 6-(4-acetamidophenyl)-5-methyl-4,5-dihydro-1,2,4-triazin-3(2H)-thione], the “Effect (mean ulcer area compared with control group)” value with ethanol ulcer was determined as 87.0%.

On to `CC(=O)Nc1ccc(C2=NNC(=O)NC2C)cc1` (stereo not shown) [Example 1-(3), 6-(4-acetamidophenyl)-5-methyl-4,5-dihydro-1,2,4-triazin-3(2H)-one], for which the results for the “Effect Max (mean ratio of maximum decrease of blood pressure)” value in the assay on blood pressure (dose a: 1 mg/kg) and in the assay with blood pressure (dose b: 0.1 mg/kg) were 48.9% and 19.2%, respectively. The IC50 in the assay with platelet (setting [1]) worked out at 0.62 µM; in the assay on platelet (setting [2]), 0.22 µM.

As for `CCOC(=O)Nc1ccc(C2=NNC(=O)NC2C)cc1` (stereo not shown) [Example 24-(4), 6-(4-Ethoxycarbonylaminophenyl)-5-methyl-4,5-dihydro-1,2,4-triazin-3(2H)-one], the entries for the “Effect Max (mean ratio of maximum decrease of blood pressure)” value in the assay on blood pressure (dose a: 1 mg/kg) and with blood pressure (dose b: 0.1 mg/kg) were 54.5% and 28.6%, respectively. The IC50 with platelet (setting [1]) worked out at 0.38 µM; with platelet (setting [2]) it was 0.069 µM.

For `CNC(=O)Nc1ccc(C2=NNC(=O)NC2C)cc1` (stereo not shown) [Example 6, 6-[4-(3-methylureido)phenyl]-5-methyl-4,5-dihydro-1,2,4-triazin-3(2H)-one], the “Effect Max (mean ratio of maximum decrease of blood pressure)” value is reported as 43.1% in the assay on blood pressure (dose a: 1 mg/kg) and 6.6% in the assay on blood pressure (dose b: 0.1 mg/kg). Moreover, the figures for the IC50 in the assay with platelet (setting [1]) and with platelet (setting [2]) were 0.74 µM and 0.41 µM, respectively.
